Inhibition and IC50 data for 16 molecules are collected here from patent publication EP1322622B1, “NEW N, N'-DISUBSTITUTED BENZIMIDAZOLONE DERIVATIVES WITH AFFINITY AT THE SEROTONIN AND DOPAMINE RECEPTORS” (Sprout Pharmaceuticals, Inc., priority 2000, dated 2002).

One may read the IC50 as the midpoint of a concentration-inhibition curve.

Each structure is given as a SMILES string. Where two headings read alike, the source gives them in different places.

One experiment has as its target T1, D4 human receptors (Homo sapiens, UniProt P21917).
T1 construct: expressed in transfected cells; host or cells: CHO cells
T1 sequence (P21917 1-419): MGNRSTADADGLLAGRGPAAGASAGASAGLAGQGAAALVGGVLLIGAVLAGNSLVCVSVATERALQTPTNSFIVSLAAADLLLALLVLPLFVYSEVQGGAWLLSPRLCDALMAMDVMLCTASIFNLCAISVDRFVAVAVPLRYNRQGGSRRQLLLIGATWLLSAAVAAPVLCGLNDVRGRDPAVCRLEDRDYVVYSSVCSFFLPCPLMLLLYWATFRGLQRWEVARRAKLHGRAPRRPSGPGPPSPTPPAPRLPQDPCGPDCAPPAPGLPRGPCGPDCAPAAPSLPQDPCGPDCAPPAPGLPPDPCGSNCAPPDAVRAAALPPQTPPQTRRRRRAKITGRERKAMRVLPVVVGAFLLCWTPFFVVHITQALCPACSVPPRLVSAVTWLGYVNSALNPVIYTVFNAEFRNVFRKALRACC
The experiment can be described thus: D4 Radioligand Receptor Binding Assay ([3H] YM-09151-2, CHO cell membranes). Conditions: compound at 10^-7 M, singlicate; [3H] YM-09151-2 0.15-0.25 nM; read-out: D4 receptor binding assay % inhib. (10^-7 M). As for the experimental part: Membranes from CHO cells, expressing D4 human receptors were suspended in incubation buffer.
Binding assays were performed in MultiProbe 204 pipetting system (Packard), according to a predetermined mapping, consistent with the software Screen. The compounds were tested in singlicate at one concentration (10^-7 M) in a total volume of 1000 µl (980 µl of diluted membranes, 10 µl DMSO or unlabelled ligand and 10 µl of [^3H] YM-09151-2 (0.15-0.25 nM). After incubation for 120 min at 27 °C, the reaction was stopped by rapid filtration through Tomtec cell Harvester (48 wells) using Filtermat B (presoaked in 0.1% PEI) filters. Filters were washed with ice-cold 50 mM Tris-HCl (pH 7.4) buffer (9 x 700 µl), dryed, covered with MeltiLex B/HS (Wallac) scintillator sheets and heated in oven at 80-90 °C for about 10 min, transferred into plastic sample bags (Wallac), sealed and put into 1024 Beta Plate scintillation counter (Wallac). Non specific binding was determined in the presence of clozapine dissolved in DMSO to a final concentration of 10^-5 M.
(§1) The specific radioligand binding to the receptor was defined by the difference between total binding and non specific binding, determined in the presence of an excess of unlabelled ligand. Results were expressed as percentage of control specific binding obtained in the presence of the compounds.

The target of another experiment is T2, 5-HT1A human receptors (Homo sapiens, UniProt P08908).
T2 construct: expressed in transfected cells; host or cells: CHO cells
T2 sequence (P08908 1-422): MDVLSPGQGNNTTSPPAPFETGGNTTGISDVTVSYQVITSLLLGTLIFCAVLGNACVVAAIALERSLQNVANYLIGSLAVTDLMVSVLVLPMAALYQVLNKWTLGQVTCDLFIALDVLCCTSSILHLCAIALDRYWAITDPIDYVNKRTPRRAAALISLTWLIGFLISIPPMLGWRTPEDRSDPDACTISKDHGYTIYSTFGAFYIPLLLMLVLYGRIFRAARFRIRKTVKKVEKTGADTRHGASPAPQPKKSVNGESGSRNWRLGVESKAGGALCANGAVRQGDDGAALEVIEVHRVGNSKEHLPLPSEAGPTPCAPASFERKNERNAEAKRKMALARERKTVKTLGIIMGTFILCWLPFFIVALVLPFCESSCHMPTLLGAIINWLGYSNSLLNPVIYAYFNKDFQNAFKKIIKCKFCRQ
The experiment can be described thus: 5-HT1A Radioligand Receptor Binding Assay ([3H]-8-OH-DPAT, CHO cell membranes). Conditions: for inhibition at 0.1 µM: compound at 10^-7 M, singlicate, [3H]-8-OH-DPAT 0.6-0.7 nM, read-out: 5-HT1A receptor binding assay % inhib. (10^-7 M). As for the experimental part: Membranes from CHO cells, expressing 5-HT1A human receptors were suspended in incubation buffer.
The compounds were tested in singlicate at one concentration (10^-7 M) in a total volume of 1000 µl. 980 µl of diluted membranes, 10 µl DMSO or unlabelled ligand and 10 µl of [^3H]-8-OH-DPAT (0.6-0.7 nM) were incubated for 60 min at 27 °C. The reaction was stopped by rapid filtration through Tomtec cell Harvester (48 wells) using Filtermat B (presoaked in 0.1% PEI) filters. […] Non specific binding was determined in the presence of 5-HT (10^-5 M).
as §1
The affinity values (IC50) for the compounds were obtained by a non linear least squares regression analysis on the basis of a one binding site model.

In the next experiment the target is T3, CHO/5-HT1A cells (Homo sapiens, UniProt P08908).
T3 construct: expressed in transfected cells; host or cells: CHO/5-HT1A cells
T3 sequence (P08908 1-422): T2 sequence (P08908 1-422)
The experiment can be described thus: 5-HT1A Functional assay (cAMP). It counts as cell-based. The conditions noted are these: 10 µM compound; % inhibition of the cAMP accumulation induced by 10 µM FSK; read-out: 5-HT1A cAMP % inhib. Here is the method:
CHO/5-HT1A cells were random seeded at a density of about 200,000/well in 24 well plates the day prior to the experiment. On the day of the experiment, cells were pretreated for 15 min at 37 °C with 500 µM isobuthylmethylxantine (IBMX) dissolved in culture medium without serum. Wells were then divided in different groups in duplicate as follows: control, 10 µM FSK, 10 µM FSK + 1 µM 5-HT as positive standard and 10 µM FSK + 10 µM of the different compound under evaluation. Sample solutions were added and incubated for additional 15 min at 37 °C. After incubation, medium was aspirated and the reaction stopped by adding 200 µl of lysis buffer. Plates were shaken for 5 min, then the lysate was removed and samples were stored at 4 °C until the day of the assay. For the cAMP evaluation, samples were properly diluted and the cAMP content was measured by an enzymeimmunoassay system.
A general note: Changes in cAMP serve as a functional read-out for many G protein-coupled receptors.

[1] abbreviates: [3H]-8-OH-DPAT displacement, CHO membranes, read-out: 5-HT1A receptor binding IC50.

In the case of `COCCn1c(=O)n(CCCCN2CCN(c3cccc(Cl)c3)CC2)c2ccccc21` [compound 5], the inhibition at 0.1 µM at D4 human receptors turned out to be 54%; on 5-HT1A human receptors, 92%. For the same molecule, at 5-HT1A human receptors (setting [1]), the 50% inhibitory concentration (IC50) is 13 nM. Also, at CHO/5-HT1A cells, the inhibition at 10 µM was 63%.

`Cc1cccc(N2CCN(CCCCn3c(=O)n(CCN4CCCCC4)c4ccccc43)CC2)c1C` [compound 37]: the figures for the inhibition at 0.1 µM on D4 human receptors and on 5-HT1A human receptors were 54% and 90%, respectively. For the same molecule, the IC50 on 5-HT1A human receptors (setting [1]) is 16 nM. At CHO/5-HT1A cells, the inhibition at 10 µM stood at 44%.

With `O=c1n(CCO)c2ccccc2n1CCCCN1CCN(c2cccc(Cl)c2)CC1` [compound 60], the figures for the inhibition at 0.1 µM at D4 human receptors and on 5-HT1A human receptors were 82% and 93%, respectively. Further, on 5-HT1A human receptors (setting [1]), the IC50 was determined as 6.2 nM. The inhibition at 10 µM on CHO/5-HT1A cells worked out at 65%.

`O=c1n(CCO)c2ccccc2n1CCCCN1CCN(c2cccc(C(F)(F)F)c2)CC1` [compound 64]: the inhibition at 0.1 µM on D4 human receptors stood at 43%. Moreover, on 5-HT1A human receptors, the IC50 was found to be 12 nM and the inhibition at 0.1 µM was 92%. For the same molecule, the inhibition at 10 µM on CHO/5-HT1A cells is 52%.

For `Cc1cccc(N2CCN(CCn3c(=O)n(CCN4CCCCC4)c4ccccc43)CC2)c1C` [compound 158], the inhibition at 0.1 µM at D4 human receptors came out at 72%; on 5-HT1A human receptors it was 95%. For the same molecule, on 5-HT1A human receptors (setting [1]), the IC50 was 13 nM. On CHO/5-HT1A cells, the inhibition at 10 µM worked out at 48%.

In the case of `COCCn1c(=O)n(CCN2CCN(c3cccc(Cl)c3)CC2)c2ccccc21` [compound 164], the inhibition at 0.1 µM on D4 human receptors was 41%; at 5-HT1A human receptors, 96%. Also, the IC50 on 5-HT1A human receptors (setting [1]) is 4.2 nM. Further, at CHO/5-HT1A cells, the inhibition at 10 µM is 73%.

With `O=c1n(CCO)c2ccccc2n1CCN1CCN(c2cccc(C(F)(F)F)c2)CC1` [compound 187], the inhibition at 0.1 µM was determined as 36% on D4 human receptors and 94% on 5-HT1A human receptors. At 5-HT1A human receptors (setting [1]), the IC50 worked out at 8.2 nM. The inhibition at 10 µM at CHO/5-HT1A cells was 44%.

For `CCNC(=O)OCCn1c(=O)n(CCN2CCN(c3ccccc3Cl)CC2)c2ccccc21` [compound 219], the results for the inhibition at 0.1 µM on D4 human receptors and on 5-HT1A human receptors were 37% and 89%, respectively. Also, at 5-HT1A human receptors (setting [1]), the IC50 is 15 nM. Moreover, the inhibition at 10 µM at CHO/5-HT1A cells turned out to be 61%.

In the case of `O=c1n(C/C=C\CN2CCN(c3ccccc3)CC2)c2ccccc2n1CCN1CCCCC1` [compound 310], the inhibition at 0.1 µM came to 49% at D4 human receptors and 85% on 5-HT1A human receptors. In addition, the inhibition at 10 µM on CHO/5-HT1A cells came out at 63%.

For the molecule `O=c1n(C/C=C\CN2CCN(c3cccc(C(F)(F)F)c3)CC2)c2ccccc2n1CCN1CCCCC1` [compound 318], the inhibition at 0.1 µM on D4 human receptors came out at 36%; on 5-HT1A human receptors it was 92%. Moreover, the inhibition at 10 µM on CHO/5-HT1A cells came to 61%.

Take `O=c1n(C/C=C/CN2CCN(c3ccccn3)CC2)c2ccccc2n1CCN1CCCCC1` [compound 330]: the inhibition at 0.1 µM came out at 84% on D4 human receptors and 97% on 5-HT1A human receptors. In addition, at CHO/5-HT1A cells, the inhibition at 10 µM came out at 62%.

On to `O=c1n(C/C=C/CN2CCc3c([nH]c4ccccc34)C2)c2ccccc2n1CCN1CCCCC1` [compound 333], for which the inhibition at 0.1 µM on D4 human receptors stood at 80%; at 5-HT1A human receptors, 99%. Further, the inhibition at 10 µM at CHO/5-HT1A cells came out at 67%.

Take `O=c1n(C/C=C/CN2CCN(c3cccc(C(F)(F)F)c3)CC2)c2ccccc2n1CCN1CCCCC1` [compound 335]: the inhibition at 0.1 µM was 55% at D4 human receptors and 95% at 5-HT1A human receptors. In addition, the IC50 on 5-HT1A human receptors (setting [1]) was 3.5 nM. Further, the inhibition at 10 µM on CHO/5-HT1A cells was determined as 69%.

On to `O=c1n(C/C=C\CN2CCN(c3cccc(C(F)(F)F)c3)CC2)c2ccccc2n1CCO` [compound 369], for which the inhibition at 0.1 µM amounted to 59% at D4 human receptors and 96% on 5-HT1A human receptors. Also, the inhibition at 10 µM on CHO/5-HT1A cells worked out at 84%.

For the molecule `CC(=O)NCCn1c(=O)n(C/C=C\CN2CCN(c3cccc(C)c3C)CC2)c2ccccc21` [compound 468], the IC50 on 5-HT1A human receptors (setting [1]) was found to be 3.1 nM. The inhibition at 10 µM on CHO/5-HT1A cells came to 66%.

Take `Cc1cccc(N2CCN(C/C=C/Cn3c(=O)n(CCNS(C)(=O)=O)c4ccccc43)CC2)c1` [compound 536]: the IC50 at 5-HT1A human receptors (setting [1]) is 9.5 nM. The inhibition at 10 µM at CHO/5-HT1A cells was found to be 55%.
